Assay results as given in patent US9487506B2, “Mineralocorticoid receptor antagonists” (Merck Sharp & Dohme Corp., priority 2011, dated 2016).

Each compound was assayed against T1, full-length human Mineralocorticoid Receptor (MR) (Homo sapiens, UniProt P08235) (assay: human MR NH Pro assay (PathHunter Protein:Protein interaction assay), MR antagonist activity). Settings: PathHunter CHO-K1 cells overexpressing human MR; aldosterone 0.3 nM to about 1 nM; 6 hours at 37° C.; luminescence; read-out: IP (rating); IP is the inflection point for a given dose-response titration curve.
T1 construct: host or cells: PathHunter CHO-K1 cells
T1 sequence (P08235 1-984): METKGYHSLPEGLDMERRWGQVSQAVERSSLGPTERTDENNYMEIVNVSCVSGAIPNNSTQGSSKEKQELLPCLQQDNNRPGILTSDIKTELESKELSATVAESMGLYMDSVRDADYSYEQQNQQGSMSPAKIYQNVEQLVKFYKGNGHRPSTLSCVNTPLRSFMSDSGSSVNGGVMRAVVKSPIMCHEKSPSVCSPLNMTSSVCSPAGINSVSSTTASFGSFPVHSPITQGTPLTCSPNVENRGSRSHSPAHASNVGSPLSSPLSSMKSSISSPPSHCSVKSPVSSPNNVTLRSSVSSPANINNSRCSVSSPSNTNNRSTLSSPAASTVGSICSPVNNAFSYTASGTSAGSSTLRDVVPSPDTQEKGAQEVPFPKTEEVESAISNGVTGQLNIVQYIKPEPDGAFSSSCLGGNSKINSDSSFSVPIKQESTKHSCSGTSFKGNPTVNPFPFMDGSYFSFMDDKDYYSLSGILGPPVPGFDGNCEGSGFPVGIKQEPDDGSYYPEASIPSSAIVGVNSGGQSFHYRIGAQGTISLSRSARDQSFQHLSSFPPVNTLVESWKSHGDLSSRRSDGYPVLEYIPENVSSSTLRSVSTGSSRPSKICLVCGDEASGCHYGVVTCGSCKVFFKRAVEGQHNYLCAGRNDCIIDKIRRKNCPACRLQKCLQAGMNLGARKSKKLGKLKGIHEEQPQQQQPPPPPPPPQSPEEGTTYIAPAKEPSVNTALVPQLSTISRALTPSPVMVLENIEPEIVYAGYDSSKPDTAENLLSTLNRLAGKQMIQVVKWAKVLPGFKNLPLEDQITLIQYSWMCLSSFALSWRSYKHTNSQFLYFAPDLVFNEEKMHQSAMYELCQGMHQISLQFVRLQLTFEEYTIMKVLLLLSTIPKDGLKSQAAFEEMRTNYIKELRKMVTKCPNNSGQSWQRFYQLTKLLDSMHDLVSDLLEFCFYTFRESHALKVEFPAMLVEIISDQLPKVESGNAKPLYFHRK
Type: cell-based
From the text: The activity of the compounds of the present invention regarding mineralocorticoid receptor antagonism can be evaluated using the following assay.
Assessment of MR Potency in HMR NH Pro Assay
The human MR NH Pro assay is a commercially available PathHunter™ Protein:Protein interaction assay (DiscoveRx; http://www.discoverx.com/nhrs/prod-nhrs.php) that measures the ability of compounds to antagonize full-length human Mineralocorticoid Receptor (MR) binding to a coactivator peptide. PathHunter™ CHO-K1 cells that overexpress human MR (Cat #93-0456C2, Lot No: 09B0913) were cultured in growth media (F12K w/Glutamine and phenol red (Gibco 11765-047) supplemented with 10% HI FBS (Gibco 16000); 0.25 mg/ml Hygromycin in PBS (Invitrogen 10687-010, 50 mg/ml); 100 I.U./mL and 100 μg/mL Pen/Strep (Gibco 15140-122); 0.6 mg/mL Geneticin (Gibco 10131-027).
Compounds were assessed for MR antagonist activity by incubating the cells with a titrating dose of compound in F12K w/Glutamine and phenol red culture media (Invitrogen 11765-047) supplemented with 1% Charcoal/Dextran Treated FBS (Hyclone #SH30068.01) and aldosterone (0.3 nM to about 1 nM) for 6 hours at 37° C. Cells were then treated with DiscoveRx detection reagent for 1 hour at room temperature and read using an Envision luminescence plate reader. % activity was measured relative to cells treated with aldosterone alone and IC50 values were calculated using ADA software.
Stock solution was prepared at 10 μM in DMSO and stored at −20° C. for assay, dilute in assay media to 1.8 or 6 nM (6× of final concentration=about 0.3 nM to about 1.0 nM)
5. Cell line: PathHunter CHO-K1 MR cells Cat #93-0456C2, Lot No: 09B0913, from operation liquid nitrogen stock.
3. The cells concentration was adjusted to 4×10^5 cells/mL.
4. Cells were (25 μL/well) added to the wells of a 384 well plate.
5. The plate was then incubated at 37° C. over night in a humidified incubator with 5% CO2.
6. Test compounds were titrated starting at 4.4 mM, 10-point titration in 1:3 dilution.
7. Aldosterone was diluted in assay media to 1.8 nM or 6 nM from 10 μM stock (final concentration to be about 0.3 nM to about 1.0 nM)
1. 10K exponentially growing cells/well (25 μL) were resuspended in assay media and plated into each well using the Multidrop (Thermo Electron) (use white wall, clear bottom assay plates (Costar #3570) and incubated overnight at 37° C., 5% CO2.
2. 0.25 μL 120× test compound (final DMSO concentration should be <1%) was added to each well n=2, 10 point titrations starting at 36.7 μM final concentration.
3. 5 μL of 6× agonist (final aldosterone concentration should be about 0.3 nM to about 1.0 nM) was added to all wells (using the PlateMate Plus; (ThermoFisher) (except those wells in columns 23 and 24)
4. 5 μL of assay media was added to all wells in column 23 and 24.
5. Cells were then incubated for 6 hrs at 37° C., 5% CO2.
6. 15 μL 3× DiscoveRx detection reagent was then added to each well.
7. Plates were incubated for 1 hour at room temperature in the dark.
8. Plates were read on Envision (PerkinElmer) luminesence plate reader and analyzed using ADA.

Compound	IC50
CS(=O)(=O)Nc1cccc2c(C(CCC#N)c3ccc(Cl)cc3F)n[nH]c12 (single isomer, unassigned) [Example 2, N-{3-[1-(4-chloro-2-fluorophenyl)-3-cyanopropyl]-1H-indazol-7-yl}methanesulfonamide (Single Enantiomer)]	< 100 nM
CCC(c1ccc(Cl)cc1)(c1n[nH]c2c(NS(C)(=O)=O)cccc12)C(C)O (single isomer, unassigned; diastereoisomer a) [Compound 24A, N-(3-(3-(4-chlorophenyl)-2-hydroxypentan-3-yl)-1H-indazol-7-yl)methane sulfonamide(diastereoisomer A)]	< 100 nM
CCC(c1ccc(Cl)cc1)(c1n[nH]c2c(NS(C)(=O)=O)cccc12)C(C)O (single isomer, unassigned; diastereoisomer b) [Compound 24B]	< 100 nM
CCC(C#N)(c1ccc(Cl)cc1)c1n[nH]c2c([N+](=O)[O-])cccc12 (stereo not drawn) [Compound 22, 2-(4-chlorophenyl)-2-(7-nitro-1H-indazol-3-yl)butanenitrile]	500 to 6000 nM
CCC(CO)(c1ccc(Cl)cc1)c1n[nH]c2c(NS(C)(=O)=O)cccc12 (stereo not drawn) [Compound 25, N-(3-(2-(4-chlorophenyl)-1-hydroxybutan-2-yl)-1H-indazol-7-yl)methane sulfonamide]	< 100 nM
N#CCCC(c1ccc(Cl)cc1F)c1n[nH]c2c(-c3ccncc3)cccc12 (stereo not drawn) [Example 4, 4-(4-chloro-2-fluorophenyl)-4-(7-pyridin-4-yl-1H-indazol-3-yl)butanenitrile]	500 to 6000 nM
CS(=O)(=O)Nc1cccc2c(C(CCCO)c3ccc(Cl)cc3F)n[nH]c12 (stereo not drawn) [Example 5, N-{3-[1-(4-chloro-2-fluorophenyl)-4-hydroxybutyl]-1H-indazol-7-yl}methanesulfonamide]	100 to 500 nM
CS(=O)(=O)Nc1cccc2c(C(CC#N)c3ccc(Cl)cc3F)n[nH]c12 (stereo not drawn) [Example 6, N-{3-[1-(4-chloro-2-fluorophenyl)-2-cyanoethyl]-1H-indazol-7-yl}methanesulfonamide]	500 to 6000 nM
CCCn1nc(C(CCC#N)c2ccc(Cl)cc2F)c2ccccc21 (stereo not drawn) [Example 15, 4-(4-chloro-2-fluorophenyl)-4-(1-propyl-1H-indazol-3-yl)butanenitrile]	500 to 6000 nM
N#CCCC(c1ccc(Cl)cc1F)c1nn(Cc2ccccc2)c2ccccc12 (stereo not drawn) [Example 16, 4-(1-benzyl-1H-indazol-3-yl)-4-(4-chloro-2-fluorophenyl)butanenitrile]	500 to 6000 nM

Results, then the compound that gave them:

IC50	Compound
500 to 6000 nM	CCC(C#N)(c1ccc(Cl)cc1)c1n[nH]c2c(NS(C)(=O)=O)cccc12 (stereo not drawn) [Compound 23, N-(3-(1-(4-chlorophenyl)-1-cyanopropyl)-1H-indazol-7-yl)methanesulfonamide]
500 to 6000 nM	Fc1cc(Cl)ccc1Cc1n[nH]c2ccccc12 [Example 1, 3-(4-chloro-2-fluorobenzyl)-1H-indazole]
500 to 6000 nM	N#CCCC(c1ccc(Cl)cc1F)c1n[nH]c2c(-c3cccnc3)cccc12 (stereo not drawn) [Example 3, 4-(4-chloro-2-fluorophenyl)-4-(7-pyridin-3-yl-1H-indazol-3-yl)butanenitrile]
500 to 6000 nM	N#CCCC(c1ccc(Cl)cc1F)c1n[nH]c2c(NS(=O)(=O)C3CC3)cccc12 (stereo not drawn) [Example 7, N-{3-[1-(4-chloro-2-fluorophenyl)-3-cyanopropyl]-1H-indazol-7-yl}cyclopropanesulfonamide]
500 to 6000 nM	Cc1noc(CCC(c2ccc(Cl)cc2F)c2n[nH]c3c(NS(C)(=O)=O)cccc23)n1 (stereo not drawn) [Example 8, N-{3-[1-(4-chloro-2-fluorophenyl)-3-(3-methyl-1,2,4-oxadiazol-5-yl)propyl]-1H-indazol-7-yl}methanesulfonamide]
500 to 6000 nM	CC(=O)CCC(c1ccc(Cl)cc1F)c1n[nH]c2c(NS(C)(=O)=O)cccc12 (stereo not drawn) [Example 9, N-{3-[1-(4-chloro-2-fluorophenyl)-4-oxopentyl]-1H-indazol-7-yl}methanesulfonamide]
500 to 6000 nM	CC(C)(O)CCC(c1ccc(Cl)cc1F)c1n[nH]c2c(NS(C)(=O)=O)cccc12 (stereo not drawn) [Example 10, n-{3-[1-(4-chloro-2-fluorophenyl)-4-hydroxy-4-methylpentyl]-1H-indazol-7-yl}methanesulfonamide]
500 to 6000 nM	CCC(O)(CC)CCC(c1ccc(Cl)cc1F)c1n[nH]c2c(NS(C)(=O)=O)cccc12 (stereo not drawn) [Example 11, N-{3-[1-(4-chloro-2-fluorophenyl)-4-hydroxy-4-ethylhexyl]-1H-indazol-7-yl}methanesulfonamide]
500 to 6000 nM	N#CCCC(c1ccc(Cl)cc1F)c1n[nH]c2ccccc12 (stereo not drawn) [Example 12, 4-(4-chloro-2-fluorophenyl)-4-(1H-indazol-3-yl)butanenitrile]
500 to 6000 nM	Cn1nc(C(CCC#N)c2ccc(Cl)cc2F)c2ccccc21 (stereo not drawn) [Example 13, 4-(4-chloro-2-fluorophenyl)-4-(1-methyl-1H-indazol-3-yl)butanenitrile]
500 to 6000 nM	CCn1nc(C(CCC#N)c2ccc(Cl)cc2F)c2ccccc21 (stereo not drawn) [Example 14, 4-(4-chloro-2-fluorophenyl)-4-(1-ethyl-1H-indazol-3-yl)butanenitrile]
500 to 6000 nM	COC(=O)Cn1nc(C(CCC#N)c2ccc(Cl)cc2F)c2ccccc21 (stereo not drawn) [Example 17A, methyl {3-[1-(4-chloro-2-fluorophenyl)-3-cyanopropyl]-1H-indazol-1-yl}acetate]
500 to 6000 nM	CC(C)(C)OC(=O)Cn1nc(C(CCC#N)c2ccc(Cl)cc2F)c2ccccc21 (stereo not drawn) [Example 17B, tert-Butyl {3-[1-(4-chloro-2-fluorophenyl)-3-cyanopropyl]-1H-indazol-1-yl}acetate]
500 to 6000 nM	COC(=O)CCn1nc(C(CCC#N)c2ccc(Cl)cc2F)c2ccccc21 (stereo not drawn) [Example 17C, Methyl 3-{3-[1-(4-chloro-2-fluorophenyl)-3-cyanopropyl]-1H-indazol-1-yl}propanoate]
500 to 6000 nM	CSCn1nc(C(CCC#N)c2ccc(Cl)cc2F)c2ccccc21 (stereo not drawn) [Example 17D, 4-(4-chloro-2-fluorophenyl)-4-{1-[(methyl-sulfanyl)-methyl]-1H-indazol-3-yl}-butanenitrile]

Same assay, conditions: enantiomers from chiral SFC OJ-H separation of the racemate

relative MR antagonist activity of the separated enantiomers	Compound
more active	CS(=O)(=O)Nc1cccc2c(C(CCC#N)c3ccc(Cl)cc3F)n[nH]c12 (single isomer, unassigned) [Example 2, N-{3-[1-(4-chloro-2-fluorophenyl)-3-cyanopropyl]-1H-indazol-7-yl}methanesulfonamide (Single Enantiomer)]
less active	CS(=O)(=O)Nc1cccc2c(C(CCC#N)c3ccc(Cl)cc3F)n[nH]c12 (single isomer, unassigned) [second peak, N-{3-[1-(4-Chloro-2-fluorophenyl)-3-cyanopropyl]-1H-indazol-7-yl}methanesulfonamide]
